PubChem BioAssay AID2060497 (Molecular Pharmacology Branch, DTP, NCI, 2025)

Test system: 317291-083-R-J1-PDC complex spheroids, viability
Assay: Anticancer human tumor 317291-083-R-J1-PDC patient-derived soft tissue sarcoma cell line growth inhibition [GQUAD]
Conditions: for IC50: curve of first compound; for viability, T/C: stronger effect = lower value
How it was run: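 Viability of tumor cells grown as complex spheroids with endothelial and stromal cells, exposed to drug combinations. Top concentration at or near clinical Cmax (else 10 microM), diluted in half-log increments.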

[1] = second compound 0.0316 µM, first compound 0.0316 µM
[2] = second compound 0.0316 µM, first compound 0.316 µM
[3] = second compound 0.1 µM, first compound 0.0316 µM
[4] = second compound 0.1 µM, first compound 0.316 µM
[5] = second compound 0.316 µM, first compound 0.0316 µM
[6] = second compound 0.316 µM, first compound 0.316 µM
[7] = second compound 1 µM, first compound 0.0316 µM
[8] = second compound 1 µM, first compound 0.316 µM
[9] = second compound 3.16 µM, first compound 0.0316 µM
[10] = second compound 3.16 µM, first compound 0.316 µM
[11] = second compound 10 µM, first compound 0.0316 µM
[12] = second compound 10 µM, first compound 0.316 µM
[13] = second compound 0.0316 µM, first compound 0.1 µM
[14] = second compound 0.0316 µM, first compound 1 µM
[15] = second compound 0.0316 µM, first compound 3.16 µM
[16] = second compound 0.0316 µM, first compound 10 µM
[17] = second compound 0.1 µM, first compound 0.1 µM
[18] = second compound 0.1 µM, first compound 1 µM
[19] = second compound 0.1 µM, first compound 3.16 µM
[20] = second compound 0.1 µM, first compound 10 µM
[21] = second compound 0.316 µM, first compound 0.1 µM
[22] = second compound 0.316 µM, first compound 1 µM
[23] = second compound 0.316 µM, first compound 3.16 µM
[24] = second compound 0.316 µM, first compound 10 µM
[25] = second compound 1 µM, first compound 0.1 µM
[26] = second compound 1 µM, first compound 1 µM
[27] = second compound 1 µM, first compound 3.16 µM
[28] = second compound 1 µM, first compound 10 µM
[29] = second compound 3.16 µM, first compound 0.1 µM
[30] = second compound 3.16 µM, first compound 1 µM
[31] = second compound 3.16 µM, first compound 3.16 µM
[32] = second compound 3.16 µM, first compound 10 µM
[33] = second compound 10 µM, first compound 0.1 µM
[34] = second compound 10 µM, first compound 1 µM
[35] = second compound 10 µM, first compound 3.16 µM
[36] = second compound 10 µM, first compound 10 µM
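Also: spheroids exposed to compounds for one week before readout.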
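For viability, T/C in this document: percent viability relative to DMSO vehicle wells taken as 100%.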

For CCc1c2c(nc3ccc(O)cc13)-c1cc3c(c(=O)n1C2)COC(=O)[C@]3(O)CC + CN(C)c1ccc(Nc2c3ccc(NC(=O)CCN4CCCC4)cc3nc3cc(NC(=O)CCN4CCCC4)ccc23)cc1, the IC50 (second compound 0.0316 µM) was 1.31 nM, the IC50 (second compound 0.1 µM) was 1.65 nM and the IC50 (second compound 0.316 µM) was < 0.999 nM. The IC50 (second compound 1 µM) was < 0.999 nM, the IC50 (second compound 3.16 µM) was < 0.999 nM and the IC50 (second compound 10 µM) was < 0.999 nM. For the same compound, the viability, T/C (second compound 0.0316 µM, first compound 0.000999 µM) was 58%, the viability, T/C (second compound 0.0316 µM, first compound 0.00316 µM) was 24.2% and the viability, T/C (second compound 0.0316 µM, first compound 0.00999 µM) was 15.7%. It also gave a viability, T/C [1] of 10.1%, a viability, T/C (second compound 0.0316 µM, first compound 0.0999 µM) of 7.96% and a viability, T/C [2] of 5.2%. The viability, T/C (second compound 0.1 µM, first compound 0.000999 µM) was 65.8%, the viability, T/C (second compound 0.1 µM, first compound 0.00316 µM) was 28.6% and the viability, T/C (second compound 0.1 µM, first compound 0.00999 µM) was 17.5%. The viability, T/C [3] was 10.9%, the viability, T/C (second compound 0.1 µM, first compound 0.0999 µM) was 9.19% and the viability, T/C [4] was 5.38%. For the same compound, the viability, T/C (second compound 0.316 µM, first compound 0.000999 µM) was 48.7%, the viability, T/C (second compound 0.316 µM, first compound 0.00316 µM) was 24.2% and the viability, T/C (second compound 0.316 µM, first compound 0.00999 µM) was 15.5%. For the same compound, the viability, T/C [5] was 13.7%, the viability, T/C (second compound 0.316 µM, first compound 0.0999 µM) was 8.7% and the viability, T/C [6] was 5.23%. It also gave a viability, T/C (second compound 1 µM, first compound 0.000999 µM) of 28.4%, a viability, T/C (second compound 1 µM, first compound 0.00316 µM) of 15.4% and a viability, T/C (second compound 1 µM, first compound 0.00999 µM) of 10.4%. It also gave a viability, T/C [7] of 5.97%, a viability, T/C (second compound 1 µM, first compound 0.0999 µM) of 7.46% and a viability, T/C [8] of 3.88%. It also gave a viability, T/C (second compound 3.16 µM, first compound 0.000999 µM) of 20.7%, a viability, T/C (second compound 3.16 µM, first compound 0.00316 µM) of 9.56% and a viability, T/C (second compound 3.16 µM, first compound 0.00999 µM) of 7.45%. The viability, T/C [9] was 4.96%, the viability, T/C (second compound 3.16 µM, first compound 0.0999 µM) was 4.76% and the viability, T/C [10] was 2.38%. The viability, T/C (second compound 10 µM, first compound 0.000999 µM) was 8.21%, the viability, T/C (second compound 10 µM, first compound 0.00316 µM) was 7.57% and the viability, T/C (second compound 10 µM, first compound 0.00999 µM) was 4.2%. The viability, T/C [11] was 2.29%, the viability, T/C (second compound 10 µM, first compound 0.0999 µM) was 2.45% and the viability, T/C [12] was 2.41%.

CCCS(=O)(=O)Nc1ccc(F)c(C(=O)c2c[nH]c3ncc(-c4ccc(Cl)cc4)cc23)c1F + CN(C)c1ccc(Nc2c3ccc(NC(=O)CCN4CCCC4)cc3nc3cc(NC(=O)CCN4CCCC4)ccc23)cc1 was tested, and the IC50 (second compound 0.0316 µM) was 4160 nM, the IC50 (second compound 0.1 µM) was 3840 nM and the IC50 (second compound 0.316 µM) was 684 nM. The IC50 (second compound 1 µM) was < 31.6 nM, the IC50 (second compound 3.16 µM) was < 31.6 nM and the IC50 (second compound 10 µM) was < 31.6 nM. For the same compound, the viability, T/C [1] was 121%, the viability, T/C [13] was 107% and the viability, T/C [2] was 108%. The viability, T/C [14] was 102%, the viability, T/C [15] was 60.4% and the viability, T/C [16] was 15.4%. It also gave a viability, T/C [3] of 106%, a viability, T/C [17] of 99.9% and a viability, T/C [4] of 82.9%. It also gave a viability, T/C [18] of 87.1%, a viability, T/C [19] of 56.9% and a viability, T/C [20] of 13.6%. It also gave a viability, T/C [5] of 86.6%, a viability, T/C [21] of 72.3% and a viability, T/C [6] of 56.3%. The viability, T/C [22] was 49.2%, the viability, T/C [23] was 30.6% and the viability, T/C [24] was 14.1%. For the same compound, the viability, T/C [7] was 45.6%, the viability, T/C [25] was 25.1% and the viability, T/C [8] was 38.2%. It also gave a viability, T/C [26] of 30.3%, a viability, T/C [27] of 28.7% and a viability, T/C [28] of 6.94%. The viability, T/C [9] was 5.58%, the viability, T/C [29] was 0.71% and the viability, T/C [10] was 9.21%. The viability, T/C [30] was 1.39%, the viability, T/C [31] was 4.27% and the viability, T/C [32] was 1.07%. It also gave a viability, T/C [11] of 0.47%, a viability, T/C [33] of 0.37% and a viability, T/C [12] of 0.54%. For the same compound, the viability, T/C [34] was 2.11%, the viability, T/C [35] was 0.46% and the viability, T/C [36] was 0.51%.

C=CCn1c(=O)c2cnc(Nc3ccc(N4CCN(C)CC4)cc3)nc2n1-c1cccc(C(C)(C)O)n1 + Cc1[nH]c2ccc(F)cc2c1-c1nc2c3cccnc3c3ncccc3c2[nH]1 was tested, and the IC50 (second compound 0.0316 µM) was 119 nM, the IC50 (second compound 0.1 µM) was 137 nM and the IC50 (second compound 0.316 µM) was 58 nM. For the same compound, the IC50 (second compound 1 µM) was 39.5 nM, the IC50 (second compound 3.16 µM) was < 31.6 nM and the IC50 (second compound 10 µM) was < 31.6 nM. The viability, T/C [1] was 80.5%, the viability, T/C [13] was 55.3% and the viability, T/C [2] was 21.7%. It also gave a viability, T/C [14] of 17.8%, a viability, T/C [15] of 8.57% and a viability, T/C [16] of 9.56%. For the same compound, the viability, T/C [3] was 87%, the viability, T/C [17] was 59.7% and the viability, T/C [4] was 24.4%. For the same compound, the viability, T/C [18] was 12.8%, the viability, T/C [19] was 12% and the viability, T/C [20] was 11.9%. The viability, T/C [5] was 61.1%, the viability, T/C [21] was 40.1% and the viability, T/C [6] was 17.3%. It also gave a viability, T/C [22] of 11.3%, a viability, T/C [23] of 10.9% and a viability, T/C [24] of 8.81%. The viability, T/C [7] was 56%, the viability, T/C [25] was 25% and the viability, T/C [8] was 15.8%. It also gave a viability, T/C [26] of 7.15%, a viability, T/C [27] of 8.02% and a viability, T/C [28] of 10.3%. The viability, T/C [9] was 25.2%, the viability, T/C [29] was 12.5% and the viability, T/C [10] was 9.21%. It also gave a viability, T/C [30] of 5.63%, a viability, T/C [31] of 8.76% and a viability, T/C [32] of 6.68%. It also gave a viability, T/C [11] of 33.5%, a viability, T/C [33] of 21.5% and a viability, T/C [12] of 13.4%. It also gave a viability, T/C [34] of 9.85%, a viability, T/C [35] of 8.36% and a viability, T/C [36] of 9.58%.
